Data as given in the supplement of paper PMC11451515.

System: SEM cells
Assay: cell viability relative to DMSO control; higher = less cytotoxic
Conditions: 48 h
How it was run: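 Leukemia cells (NOMO1 or SEM, 500 cells/well; P12-Ichikawa, 1000 cells/well) were seeded in 5 μl in 1536-well plates after at least four passages of adaptation to each medium. They received library compounds in DMSO by pin dosing, 11 threefold points from 47 μM to 0.79 nM. Luminescence with CellTiter-Glo One was read after 48 h at 37°C. Viability is stated per plate relative to DMSO wells, with cell-free wells as background.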

[1] = HPLM + 10% dialyzed FBS, 0.000781 µM
[2] = HPLM + 10% dialyzed FBS, 0.00234 µM
[3] = HPLM + 10% dialyzed FBS, 0.00702 µM
[4] = HPLM + 10% dialyzed FBS, 0.0211 µM
[5] = HPLM + 10% dialyzed FBS, 0.0632 µM
[6] = HPLM + 10% dialyzed FBS, 0.19 µM
[7] = HPLM + 10% dialyzed FBS, 0.569 µM
[8] = HPLM + 10% dialyzed FBS, 1.71 µM
[9] = HPLM + 10% dialyzed FBS, 5.12 µM
[10] = HPLM + 10% dialyzed FBS, 15.4 µM
[11] = HPLM + 10% dialyzed FBS, 46.1 µM
[12] = RPMI 5 mM glucose + 10% FBS, 0.000781 µM
[13] = RPMI 5 mM glucose + 10% FBS, 0.00234 µM
[14] = RPMI 5 mM glucose + 10% FBS, 0.00702 µM
[15] = RPMI 5 mM glucose + 10% FBS, 0.0211 µM
[16] = RPMI 5 mM glucose + 10% FBS, 0.0632 µM
[17] = RPMI 5 mM glucose + 10% FBS, 0.19 µM
[18] = RPMI 5 mM glucose + 10% FBS, 0.569 µM
[19] = RPMI 5 mM glucose + 10% FBS, 1.71 µM
[20] = RPMI 5 mM glucose + 10% FBS, 5.12 µM
[21] = RPMI 5 mM glucose + 10% FBS, 15.4 µM
[22] = RPMI 5 mM glucose + 10% FBS, 46.1 µM
[23] = RPMI 5 mM glucose + 10% dialyzed FBS, 0.000781 µM
[24] = RPMI 5 mM glucose + 10% dialyzed FBS, 0.00234 µM
[25] = RPMI 5 mM glucose + 10% dialyzed FBS, 0.00702 µM
[26] = RPMI 5 mM glucose + 10% dialyzed FBS, 0.0211 µM
[27] = RPMI 5 mM glucose + 10% dialyzed FBS, 0.0632 µM
[28] = RPMI 5 mM glucose + 10% dialyzed FBS, 0.19 µM
[29] = RPMI 5 mM glucose + 10% dialyzed FBS, 0.569 µM
[30] = RPMI 5 mM glucose + 10% dialyzed FBS, 1.71 µM
[31] = RPMI 5 mM glucose + 10% dialyzed FBS, 5.12 µM
[32] = RPMI 5 mM glucose + 10% dialyzed FBS, 15.4 µM
[33] = RPMI 5 mM glucose + 10% dialyzed FBS, 46.1 µM

SMILES	cell viability [1] [%]	cell viability [2] [%]	cell viability [3] [%]	cell viability [4] [%]	cell viability [5] [%]	cell viability [6] [%]	cell viability [7] [%]	cell viability [8] [%]	cell viability [9] [%]	cell viability [10] [%]	cell viability [11] [%]	cell viability [12] [%]	cell viability [13] [%]	cell viability [14] [%]	cell viability [15] [%]	cell viability [16] [%]	cell viability [17] [%]	cell viability [18] [%]	cell viability [19] [%]	cell viability [20] [%]	cell viability [21] [%]	cell viability [22] [%]	cell viability [23] [%]	cell viability [24] [%]	cell viability [25] [%]	cell viability [26] [%]	cell viability [27] [%]	cell viability [28] [%]	cell viability [29] [%]	cell viability [30] [%]	cell viability [31] [%]	cell viability [32] [%]	cell viability [33] [%]
CC#CCn1c(N2CCC[C@@H](N)C2)nc2c1c(=O)n(Cc1nc(C)c3ccccc3n1)c(=O)n2C	107	114	115	42.6	115	104	112	109	111	116	83.3	105	97.9	105	40.3	114	102	112	108	109	102	88.7	96.8	94.4	88.7	45.6	108	96	108	93.9	93.5	99.1	75.2
O=P(O)(O)C(O)(Cn1ccnc1)P(=O)(O)O	73.9	94	19.2	101	106	101	107	106	104	109	99.1	95.8	102	10.2	110	120	116	123	110	123	120	114	100	89.7	22.5	92.7	114	104	102	117	120	116	121
CC[C@H]1OC(=O)[C@H](C)C(=O)[C@H](C)[C@@H](O[C@H]2O[C@H](C)C[C@H](N(C)C)[C@H]2O)[C@](C)(OC)C[C@@H](C)C(=O)[C@H](C)[C@H]2N(CCCCn3cnc(-c4cccnc4)c3)C(=O)O[C@]12C	99.7	118	136	120	135	123	105	109	107	105	85.2	95.6	110	116	117	124	114	114	97.8	119	102	93.3	110	124	121	117	135	126	99.3	119	104	118	86.1
Cc1ccnc2c1NC(=O)c1cccnc1N2C1CC1	63.6	84.2	97.9	101	95.8	97.2	106	107	91.8	102	111	83.7	85.2	84.6	85.4	96.7	96.8	90.9	101	99.4	105	99.6	90.8	86.6	94.5	90.1	90.1	89.7	93	90.4	105	101	93.6
CC(N[C@H]1CCCC[C@@H]1NC(=O)c1ccc(Cl)cc1)c1cccc2ccccc12 (some centres undefined)	98.2	105	110	114	111	112	101	115	112	118	119	92.2	102	109	120	107	108	121	113	119	138	110	120	112	109	114	116	114	125	127	115	133	121
COC1=C(OCCCN2CCOCC2)C=CC\3=C1/N=C(/NC(=O)C4=CN=C(N)N=C4)N5CC/N=C35	95.2	94.2	102	99.2	97.4	77.2	69.4	65.8	57.3	47.6	37.4	128	119	110	106	104	97.6	82.4	88.1	72	63	42.8	89.3	101	93.2	95.5	86.3	83	66.5	59.3	56.6	51.8	35.1
CC(=O)Oc1ccccc1C(=O)Nc1ncc([N+](=O)[O-])s1	85.4	88.9	89	91.3	84.3	107	98.3	104	96.9	93.1	66.3	85	100	92.6	101	90.5	107	94.7	101	104	85.4	79.6	87.1	93	99.6	100	108	106	101	104	100	94.2	82.7
OCC(O)C(O)C(O)CO (centres undefined)	85.4	83.7	98.2	101	103	102	73.8	94.7	91.6	37.5	88.9	89	91.1	92.2	95.9	109	102	80.2	103	97.8	29.8	86.4	103	105	102	101	88.6	89.1	64.6	91.5	109	30.3	93
C[C@@H](CN1CC(=O)NC(=O)C1)N1CC(=O)NC(=O)C1	86.3	103	102	96.6	70.9	32.1	17.2	12.8	10.5	5.86	4.47	93.6	99.3	98.2	67.1	72.1	17.1	9.93	8.96	7.24	4.49	3.85	75	101	92.6	82.5	61.1	18.6	8.07	8.83	7.97	4.17	3.08
CCOC(=O)\C1=C\[C@]2(CC)CCCN3CCC4=C([C@H]23)[N]1C5=C4C=CC=C5	71.6	100	87.6	111	118	103	104	111	114	97.7	80.7	103	104	111	114	121	112	110	108	109	107	77.1	93.7	111	112	108	116	124	126	108	118	105	94.7
CC[C@@H]([C@H](C)O)n1ncn(-c2ccc(N3CCN(c4ccc(OCC5CO[C@@](Cn6cncn6)(c6ccc(F)cc6F)C5)cc4)CC3)cc2)c1=O (some centres undefined)	92.3	110	107	107	114	100	107	100	102	59.1	82.7	96.7	101	109	105	105	115	93.8	103	86.9	87.7	78.2	112	111	108	124	106	105	106	115	102	90.7	81.8
COC1=C(OCCCN2CCOCC2)C=C3N=CC=C(OC4=CC=C(C=C4F)\C5=C\N=C(\NC6=CC=C(F)C=C6)N(C)C5=O)C3=C1	110	112	110	91.7	68.9	57.7	59	52.4	47.8	40.7	5.64	103	108	113	81.2	79.4	65.2	46.7	56.5	52.6	37.6	1.97	110	116	103	77.9	73.8	52	45.9	44	43	34.8	3.15
CN1CC(=O)N2[C@H](c3ccc4c(c3)OCO4)c3[nH]c4ccccc4c3C[C@@H]2C1=O	98.8	88.6	97.2	96.3	98	102	108	106	93.9	100	85.9	92.6	85.3	85.8	97.9	102	108	92.6	88.8	82.1	85.3	83.5	94	88.8	88.3	108	106	69.6	105	113	105	89	95.4
